Structures can show the parent of a compound that is named as a salt. Where two headings read alike, the source gives them in different places.
What was measured:
Type in all cases: biochemical
[1] = biological target: T1, recombinant human DAO (diamine oxidase) (Homo sapiens, UniProt P19801); test: Activity evaluation on recombinant human DAO (Amplex Red/HRP-coupled assay, 1 mM putrescine substrate); settings: read-out: Inhibitory Activity (IC50, nM) DAO
T1 construct: purchased R&D systems
T1 sequence (P19801 20-751): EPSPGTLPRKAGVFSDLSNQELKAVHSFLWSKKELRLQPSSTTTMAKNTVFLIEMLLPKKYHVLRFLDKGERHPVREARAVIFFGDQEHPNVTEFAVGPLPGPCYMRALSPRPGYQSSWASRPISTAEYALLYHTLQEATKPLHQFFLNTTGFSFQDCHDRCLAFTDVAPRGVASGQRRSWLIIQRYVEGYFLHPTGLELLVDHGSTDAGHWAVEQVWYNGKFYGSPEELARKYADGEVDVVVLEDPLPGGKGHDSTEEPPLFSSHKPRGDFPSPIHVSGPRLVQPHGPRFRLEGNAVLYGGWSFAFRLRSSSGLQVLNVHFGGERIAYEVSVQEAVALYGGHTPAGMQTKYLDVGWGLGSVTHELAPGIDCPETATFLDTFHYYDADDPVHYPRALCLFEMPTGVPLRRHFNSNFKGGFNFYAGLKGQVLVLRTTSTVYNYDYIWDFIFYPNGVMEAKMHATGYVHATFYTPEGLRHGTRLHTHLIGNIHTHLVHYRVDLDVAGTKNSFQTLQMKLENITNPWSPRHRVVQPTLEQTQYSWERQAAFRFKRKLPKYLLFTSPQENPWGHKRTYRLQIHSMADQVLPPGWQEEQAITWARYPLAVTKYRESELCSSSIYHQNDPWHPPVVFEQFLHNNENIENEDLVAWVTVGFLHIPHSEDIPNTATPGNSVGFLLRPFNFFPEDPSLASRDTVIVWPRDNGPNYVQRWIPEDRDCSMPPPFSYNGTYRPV
Procedure: (§1) The compounds according to the present technology were evaluated in terms of activity on recombinant human VAP-1 (R&D systems) by measuring the level of hydrogen peroxide in horseradish peroxidase (HRP)-coupled reaction using Amplex Red Hydrogen Peroxide Assay Kit (Molecular Probes, Invitrogen, USA). The experiment was carried out at room temperature using benzylamine as a substrate. In the HRP-coupled reaction, hydrogen peroxide oxidation of 10-acetyl-3,7-dihydroxyphenoxazine (Amplex Red reagent) produces resorufin, which is a highly fluorescent compound. Briefly, the test compound was dissolved in dimethyl sulfoxide (DMSO) at a concentration of 20 mM. The dose-response assessment was made by 1:3 serial dilution in DMSO, thereby creating a 8 point curve. The concentration of the upper part was controlled according to the efficacy of the compounds, followed by the dilution with a reaction buffer solution to obtain a final DMSO concentration of less than 1%. To each well of a 96 black well plate, human VAP-1 purified in 50 mM sodium phosphate buffer solution (pH7.4) was added. The test compounds dissolved in DMSO were incubated with the human VAP-1 enzymes at 37° C. for 30 minutes. After 30-minute incubation, each well was added with a reaction mixture containing 200 uM Amplex Red reagent prepared from 50 mM sodium phosphate buffer solution (pH 7.4), 1 mM benzylamine, and 1 U/mL HRP. Fluorescence intensity was measured at several time points during 1-2 hours using a microplate reader (Flexstation3, Molecular Devices) under the wavelength condition exciting at 544 nm and reading the emission at 590 nm. The inhibitory effect of the compounds was measured as a decrease (%) in the signal rate as compared to the control group without any inhibitor (only diluted DMSO). Data was fixed to a logistic model with four variables and IC50 value was calculated using GraphPad Prism program.
(§2) In addition, the compounds according to the present technology were evaluated in terms of activity on a recombinant human MAO-A (monoamine oxidase-A, Sigma-Aldrich) and a recombinant human MAO-B (monoamine oxidase-B, Sigma-Aldrich) by using as substrates, 0.5 mM tyramine and 1 mM benzylamine, respectively, with a method similar to the activity evaluation method for recombinant human VAP-1. The compounds according to the present technology were also evaluated in terms of activity on a recombinant human DAO (diamine oxidase, R&D systems) by using as a substrate 1 mM putrescine with a method similar to the activity evaluation method for recombinant human VAP-1.

[2] = biological target: T2, recombinant human MAO-A (monoamine oxidase-A) (Homo sapiens, UniProt P21397); test: Activity evaluation on recombinant human MAO-A (Amplex Red/HRP-coupled assay, 0.5 mM tyramine substrate); settings: read-out: Inhibitory Activity (IC50, nM) MAO-A
T2 construct: purchased Sigma-Aldrich
T2 sequence (P21397 1-527): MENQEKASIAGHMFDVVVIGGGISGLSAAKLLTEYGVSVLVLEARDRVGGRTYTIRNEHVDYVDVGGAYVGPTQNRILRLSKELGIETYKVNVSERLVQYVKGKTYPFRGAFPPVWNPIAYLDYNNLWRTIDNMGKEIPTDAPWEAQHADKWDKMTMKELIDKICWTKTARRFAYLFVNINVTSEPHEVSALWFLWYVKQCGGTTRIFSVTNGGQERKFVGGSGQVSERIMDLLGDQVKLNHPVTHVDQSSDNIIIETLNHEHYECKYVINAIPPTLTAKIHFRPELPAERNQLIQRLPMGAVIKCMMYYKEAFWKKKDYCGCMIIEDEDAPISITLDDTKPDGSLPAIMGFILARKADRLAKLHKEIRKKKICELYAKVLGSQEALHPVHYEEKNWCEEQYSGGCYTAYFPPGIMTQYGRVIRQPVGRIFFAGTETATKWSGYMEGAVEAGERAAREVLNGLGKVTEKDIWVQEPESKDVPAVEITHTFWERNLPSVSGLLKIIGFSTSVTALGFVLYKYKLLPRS
Procedure: as §1, §2

recombinant human VAP-1 = biological target: T3, recombinant human VAP-1 (Homo sapiens, UniProt Q16853); test: Activity evaluation on recombinant human VAP-1 (Amplex Red/HRP-coupled hydrogen peroxide assay, benzylamine substrate); settings: read-out: Inhibitory Activity (IC50, nM) human VAP-1
T3 construct: purchased R&D systems
T3 sequence (Q16853 1-763): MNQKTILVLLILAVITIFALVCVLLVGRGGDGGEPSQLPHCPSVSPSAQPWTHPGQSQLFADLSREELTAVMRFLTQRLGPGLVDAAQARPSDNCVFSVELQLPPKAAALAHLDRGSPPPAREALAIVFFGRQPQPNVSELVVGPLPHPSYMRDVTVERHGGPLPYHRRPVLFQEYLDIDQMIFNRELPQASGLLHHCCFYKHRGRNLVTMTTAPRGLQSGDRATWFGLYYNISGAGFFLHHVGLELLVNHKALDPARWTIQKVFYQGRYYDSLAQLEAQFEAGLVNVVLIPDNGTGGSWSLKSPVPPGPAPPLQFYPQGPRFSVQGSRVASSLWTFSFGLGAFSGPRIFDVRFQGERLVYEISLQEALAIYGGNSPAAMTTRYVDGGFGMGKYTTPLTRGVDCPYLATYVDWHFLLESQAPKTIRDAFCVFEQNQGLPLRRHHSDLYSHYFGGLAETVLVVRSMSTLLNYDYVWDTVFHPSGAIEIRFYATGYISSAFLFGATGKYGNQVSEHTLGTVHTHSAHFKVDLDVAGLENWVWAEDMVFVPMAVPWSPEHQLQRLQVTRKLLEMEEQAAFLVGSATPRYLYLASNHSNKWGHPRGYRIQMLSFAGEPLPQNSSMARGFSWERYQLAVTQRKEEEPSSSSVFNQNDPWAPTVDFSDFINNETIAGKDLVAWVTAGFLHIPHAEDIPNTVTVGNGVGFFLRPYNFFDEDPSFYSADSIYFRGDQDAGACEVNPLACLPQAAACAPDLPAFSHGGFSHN
Procedure: as §1

[3] = biological target: T4, recombinant human MAO-B (monoamine oxidase-B) (Homo sapiens, UniProt P27338); test: Activity evaluation on recombinant human MAO-B (Amplex Red/HRP-coupled assay, 1 mM benzylamine substrate); settings: read-out: Inhibitory Activity (IC50, nM) MAO-B
T4 construct: purchased Sigma-Aldrich
T4 sequence (P27338 1-520): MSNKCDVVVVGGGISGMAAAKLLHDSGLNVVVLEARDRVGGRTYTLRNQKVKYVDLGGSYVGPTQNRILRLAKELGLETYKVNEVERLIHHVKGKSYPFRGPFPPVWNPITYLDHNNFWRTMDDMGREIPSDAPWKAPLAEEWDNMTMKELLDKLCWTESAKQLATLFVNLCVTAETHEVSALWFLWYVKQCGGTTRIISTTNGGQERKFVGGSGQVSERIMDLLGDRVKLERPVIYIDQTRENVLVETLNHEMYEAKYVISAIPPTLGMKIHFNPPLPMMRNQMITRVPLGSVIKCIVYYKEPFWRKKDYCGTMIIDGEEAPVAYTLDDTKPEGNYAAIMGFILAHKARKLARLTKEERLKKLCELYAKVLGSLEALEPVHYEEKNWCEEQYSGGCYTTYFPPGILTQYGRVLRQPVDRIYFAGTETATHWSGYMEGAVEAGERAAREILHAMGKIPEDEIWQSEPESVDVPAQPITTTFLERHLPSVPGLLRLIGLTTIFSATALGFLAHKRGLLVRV
Procedure: as §1, §2

[4] = recombinant human VAP-1, benzylamine substrate
[5] = recombinant human VAP-1, 30 min preincubation at 37° C., 1 mM benzylamine

Compound	IC50 ([1]; 1 mM putrescine substrate) [nM]	IC50 ([2]; 0.5 mM tyramine substrate) [nM]	IC50 (recombinant human VAP-1; [4]) [nM]	IC50 ([3]; 1 mM benzylamine substrate) [nM]	IC50 ([1]; 1 mM putrescine) [nM]	IC50 ([2]; 0.5 mM tyramine) [nM]	IC50 (recombinant human VAP-1; [5]) [nM]	IC50 ([3]; 1 mM benzylamine) [nM]
NCC(Cn1ncn(Cc2sc(-c3ccc(N4CCNCC4)cc3)cc2F)c1=O)=C(F)F [Example 298, 2-[2-(aminomethyl)-3,3-difluoro-allyl]-4-[[3-fluoro-5-(4-piperazin-1-ylphenyl)-2-thienyl]methyl]-1,2,4-triazol-3-one ditrifluoroacetate]	0.2	> 100000	12	> 100000				
CCn1cc(-c2ccc(-n3cnn(CC(CN)=C(F)F)c3=O)cn2)cn1 [Example 45, 2-[2-(aminomethyl)-3,3-difluoro-allyl]-4-[6-(1-ethylpyrazol-4-yl)-3-pyridyl]-1,2,4-triazol-3-one Trifluoroacetate]					200	> 100000	0.2	410
CCn1cc(-c2ccnc(-n3cnn(CC(CN)=C(F)F)c3=O)c2)cn1 [Example 60, 2-[2-(aminomethyl)-3,3-difluoro-allyl]-4-[4-(1-ethylpyrazol-4-yl)-2-pyridyl]-1,2,4-triazol-3-one Trifluoroacetate]					810	> 100000	1.3	> 100000
COCCNc1ncc(-c2cnc(-n3cnn(CC(CN)=C(F)F)c3=O)c(C)c2)cn1 [Example 222, 2-[2-(aminomethyl)-3,3-difluoro-allyl]-4-[5-[2-(2-methoxyethylamino)pyrimidin-5-yl]-3-methyl-2-pyridyl]-1,2,4-triazol-3-one Trifluoroacetate]	4000	> 100000	1	> 100000				
CN1C(=O)CCc2cc(-c3ccc(-n4cnn(CC(CN)=C(F)F)c4=O)cn3)ccc21 [Example 44, 6-[5-[1-[2-(aminomethyl)-3,3-difluoro-allyl]-5-oxo-1,2,4-triazol-4-yl]-2-pyridyl]-1-methyl-3,4-dihydroquinolin-2-one Trifluoroacetate]					14	> 100000	0.3	110
CS(=O)(=O)c1ccc(-c2ccc(-n3cnn(CC(CN)=C(F)F)c3=O)c(F)c2)cc1 [Example 31, 2-[2-(aminomethyl)-3,3-difluoro-allyl]-4-[2-fluoro-4-(4-methylsulfonylphenyl)phenyl]-1,2,4-triazol-3-one Trifluoroacetate]					59	> 100000	0.2	870

Second part, the compound after the results:

IC50 ([1]; 1 mM putrescine substrate) [nM]	IC50 ([2]; 0.5 mM tyramine substrate) [nM]	IC50 (recombinant human VAP-1; [4]) [nM]	IC50 ([3]; 1 mM benzylamine substrate) [nM]	IC50 ([1]; 1 mM putrescine) [nM]	IC50 ([2]; 0.5 mM tyramine) [nM]	IC50 (recombinant human VAP-1; [5]) [nM]	IC50 ([3]; 1 mM benzylamine) [nM]	Compound
> 100000	> 100000	1.1	> 100000					CN(C)c1ccc(-c2ccc(Cn3cnn(CC(CN)=C(F)F)c3=O)cc2)cn1 [Example 267, 2-[2-(aminomethyl)-3,3-difluoro-allyl]-4-[[4-[6-(dimethylamino)-3-pyridyl]phenyl]methyl]-1,2,4-triazol-3-one Trifluoroacetate]
				6300	> 100000	0.7	8700	NCC(Cn1ncn(Cc2cc(-c3ccc(C(F)(F)F)nc3)cs2)c1=O)=C(F)F [Example 148, 2-[2-(aminomethyl)-3,3-difluoro-allyl]-4-[[4-[6-(trifluoromethyl)-3-pyridyl]-2-thienyl]methyl]-1,2,4-triazol-3-one Trifluoroacetate]
31000	> 100000	2	38000					CC(C)n1cc(-c2csc(Cn3cnn(CC(CN)=C(F)F)c3=O)c2)cn1 [Example 195, 2-[2-(aminomethyl)-3,3-difluoro-allyl]-4-[[4-(1-isopropylpyrazol-4-yl)-2-thienyl]methyl]-1,2,4-triazol-3-one Trifluoroacetate]
				3500	> 100000	0.2	13400	CN1C(=O)CCc2cc(-c3csc(Cn4cnn(CC(CN)=C(F)F)c4=O)c3)ccc21 [Example 152, 6-[5-[[1-[2-(aminomethyl)-3,3-difluoro-allyl]-5-oxo-1,2,4-triazol-4-yl]methyl]-3-thienyl]-1-methyl-3,4-dihydroquinolin-2-one Trifluoroacetate]
